This note sets out measurements from patent US12378249B2, “Isoquinoline compounds and uses thereof” (Genentech, Inc., priority 2018, dated 2025).

Chain of HPK1 (Q92918 whole entry T165E/S171E): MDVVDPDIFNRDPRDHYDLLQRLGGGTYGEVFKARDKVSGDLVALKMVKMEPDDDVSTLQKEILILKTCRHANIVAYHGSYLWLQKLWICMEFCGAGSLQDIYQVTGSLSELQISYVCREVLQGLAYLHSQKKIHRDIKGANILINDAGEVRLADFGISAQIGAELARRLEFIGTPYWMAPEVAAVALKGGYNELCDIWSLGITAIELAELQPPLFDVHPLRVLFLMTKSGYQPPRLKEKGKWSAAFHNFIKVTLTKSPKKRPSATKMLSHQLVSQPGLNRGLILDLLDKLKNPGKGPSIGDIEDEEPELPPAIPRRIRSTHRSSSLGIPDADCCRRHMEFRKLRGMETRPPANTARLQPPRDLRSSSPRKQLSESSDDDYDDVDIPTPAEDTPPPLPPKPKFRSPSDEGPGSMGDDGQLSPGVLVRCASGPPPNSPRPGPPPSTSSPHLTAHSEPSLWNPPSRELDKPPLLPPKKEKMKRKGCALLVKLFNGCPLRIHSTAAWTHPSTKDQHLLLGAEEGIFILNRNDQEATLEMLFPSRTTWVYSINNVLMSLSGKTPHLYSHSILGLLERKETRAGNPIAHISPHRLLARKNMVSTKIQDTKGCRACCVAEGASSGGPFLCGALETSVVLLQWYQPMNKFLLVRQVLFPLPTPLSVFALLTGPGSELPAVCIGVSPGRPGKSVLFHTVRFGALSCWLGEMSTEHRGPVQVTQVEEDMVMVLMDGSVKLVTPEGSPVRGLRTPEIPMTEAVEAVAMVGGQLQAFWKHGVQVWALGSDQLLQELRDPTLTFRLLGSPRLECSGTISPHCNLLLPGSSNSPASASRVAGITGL

The test addresses HPK1 (Homo sapiens (Human), UniProt Q92918, S171E/T165E). Kind of test: HPK1-FL HTRF Enzymatic Assay (HTRF). In kind it is biochemical. The following applies: HPK full length T165E S171E 0.125 nM, ATP 1 mM, Biotin-SLP76 100 nM, read-out: HPK1 Ki (nM), H = HTRF. The method, boiled down:
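Full-length HPK1 double mutant, preincubated 30 min with compound, then phosphorylates Biotin-SLP-76 at 1 mM ATP for 60 min in HEPES pH 7.5/MgCl2/TCEP/Brij-35 buffer. Phospho-product detected by TR-FRET (Eu-anti-pSLP76, SA-XL665) after 60 min; 665/620 ratio gives % activity, from which Ki is determined.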
Background: Time-resolved FRET reads energy transfer from a long-lived donor to a nearby acceptor.
In general, Ki refers to a measure of affinity in units of concentration, obtained from inhibition or displacement. In the case of `Cc1c(-c2ccc3cnc(Nc4cc5n(n4)CC(=O)N(C)CC5)cc3c2F)cnc2c1NCCO2` [Compound 174, 2-((5-fluoro-6-(8-methyl-2,3-dihydro-1H-pyrido[2,3-b][1,4]oxazin-7-yl)isoquinolin-3-yl)amino)-6-methyl-5,6-dihydro-4H-pyrazolo[1,5-d][1,4]diazepin-7(8H)-one], the inhibitory constant (Ki) came to 0.026 nM.

Regarding `Cc1c(-c2cc3cc(Nc4cc5n(n4)CC(=O)N(C)CC5)ncc3cc2F)cnc2nc[nH]c12` [Compound 175, 2-((7-fluoro-6-(7-methyl-1H-imidazo[4,5-b]pyridin-6-yl)isoquinolin-3-yl)amino)-6-methyl-5,6-dihydro-4H-pyrazolo[1,5-d][1,4]diazepin-7(8H)-one], the Ki was 0.14 nM.

On to `Cc1c(-c2cc3cc(Nc4cc5n(n4)CC(=O)NCC5)ncc3cc2F)cnc2c1NCC(F)(F)O2` [Compound 176, 2-((6-(3,3-difluoro-8-methyl-2,3-dihydro-1H-pyrido[2,3-b][1,4]oxazin-7-yl)-7-fluoroisoquinolin-3-yl)amino)-5,6-dihydro-4H-pyrazolo[1,5-d][1,4]diazepin-7(8H)-one], for which the Ki is 0.161 nM.

`Cc1c(-c2cc3cc(Nc4cc5n(n4)CC(=O)N(C)CC5)ncc3cc2F)cnc2c1NCCS2(=O)=O` [Compound 177, 2-((7-fluoro-6-(8-methyl-4,4-dioxido-2,3-dihydro-1H-pyrido[2,3-b][1,4]thiazin-7-yl)isoquinolin-3-yl)amino)-6-methyl-5,6-dihydro-4H-pyrazolo[1,5-d][1,4]diazepin-7(8H)-one]: the Ki was 0.277 nM.

In the case of `Cc1cc(S(C)(=N)=O)ncc1-c1cc2cc(Nc3cc4n(n3)CC(=O)N(C)CC4)ncc2cc1F` (centres unmarked) [Compound 178, 2-((7-fluoro-6-(4-methyl-6-(S-methylsulfonimidoyl)pyridin-3-yl)isoquinolin-3-yl)amino)-6-methyl-5,6-dihydro-4H-pyrazolo[1,5-d][1,4]diazepin-7(8H)-one], the inhibition constant (Ki) turned out to be 23.7 nM.

Take `Cc1c(NC2CNC2)cncc1-c1cc2cc(Nc3cc4n(n3)Cc3nccn3CC4)ncc2cc1F` [Compound 179, N-(6-(5-(azetidin-3-ylamino)-4-methylpyridin-3-yl)-7-fluoroisoquinolin-3-yl)-5,6-dihydro-11H-imidazo[1,2-a]pyrazolo[1,5-d][1,4]diazepin-8-amine]: the Ki was found to be 0.5 nM.

For `CNc1cncc(-c2cc3cc(Nc4cc5n(n4)CC(=O)NCC5)ncc3cc2F)c1C` [Compound 181, 2-((7-fluoro-6-(4-methyl-5-(methylamino)pyridin-3-yl)isoquinolin-3-yl)amino)-5,6-dihydro-4H-pyrazolo[1,5-d][1,4]diazepin-7(8H)-one], the Ki was determined as 0.026 nM.

On to `Cc1c(-c2cc3cc(Nc4cc5n(n4)Cc4nccn4CC5)ncc3cc2F)cnc2c1NCCCO2` [Compound 183, N-(7-fluoro-6-(9-methyl-1,2,3,4-tetrahydropyrido[2,3-b][1,4]oxazepin-8-yl)isoquinolin-3-yl)-5,6-dihydro-11H-imidazo[1,2-a]pyrazolo[1,5-d][1,4]diazepin-8-amine], for which the inhibition constant Ki is 0.013 nM.

For the molecule `Cc1c(-c2cc3cc(Nc4cc5n(n4)CC(=O)N(C)CC5)ncc3cc2F)cnc2cn[nH]c12` [Compound 186, 2-((7-fluoro-6-(7-methyl-1H-pyrazolo[4,3-b]pyridin-6-yl)isoquinolin-3-yl)amino)-6-methyl-5,6-dihydro-4H-pyrazolo[1,5-d][1,4]diazepin-7(8H)-one], the Ki stood at 0.12 nM.

Turning to `Cc1c(-c2cc3cc(Nc4cc5n(n4)CC(=O)N(C)CC5)ncc3cc2F)cnc2c1NCN(C)C2=O` [Compound 187, 7-(7-fluoro-3-((6-methyl-7-oxo-5,6,7,8-tetrahydro-4H-pyrazolo[1,5-d][1,4]diazepin-2-yl)amino)isoquinolin-6-yl)-3,8-dimethyl-2,3-dihydropyrido[3,2-d]pyrimidin-4(1H)-one], the Ki came out at 0.25 nM.

As for `Cc1c(-c2cc3cc(Nc4cc5n(n4)CC(=O)N(C)CC5)ncc3cc2F)cnc2c1CCCO2` [Compound 190, 2-((7-fluoro-6-(5-methyl-3,4-dihydro-2H-pyrano[2,3-b]pyridin-6-yl)isoquinolin-3-yl)amino)-6-methyl-5,6-dihydro-4H-pyrazolo[1,5-d][1,4]diazepin-7(8H)-one], the Ki came out at 0.24 nM.

On to `Cc1c(-c2cc3cc(Nc4cc5n(n4)CC(=O)NCC5)ncc3cc2F)cnc2c1NCCC2` [Compound 192, 2-((7-fluoro-6-(4-methyl-5,6,7,8-tetrahydro-1,5-naphthyridin-3-yl)isoquinolin-3-yl)amino)-5,6-dihydro-4H-pyrazolo[1,5-d][1,4]diazepin-7(8H)-one], for which the inhibitory constant (Ki) came out at 0.018 nM.

In the case of `Cc1c(-c2cc3cc(Nc4cc5n(n4)CC(=O)N(C)CC5)ncc3cc2F)cnc2c1NS(=O)(=O)CO2` [Compound 193, 2-((7-fluoro-6-(8-methyl-2,2-dioxido-1H,3H-pyrido[3,2-e][1,3,4]oxathiazin-7-yl)isoquinolin-3-yl)amino)-6-methyl-5,6-dihydro-4H-pyrazolo[1,5-d][1,4]diazepin-7(8H)-one], the inhibitory constant (Ki) is 23 nM.

On to `Cc1c(-c2cc3cc(Nc4cc5n(n4)CC(=O)N(C)CC5)ncc3cc2F)cnnc1N` [Compound 194, 2-((6-(6-amino-5-methylpyridazin-4-yl)-7-fluoroisoquinolin-3-yl)amino)-6-methyl-5,6-dihydro-4H-pyrazolo[1,5-d][1,4]diazepin-7(8H)-one], for which the Ki turned out to be 0.83 nM.

For `Cc1c[nH]c2c(C)c(-c3cc4cc(Nc5cc6n(n5)CC(=O)N(C)CC6)ncc4cc3F)cnc12` [Compound 195, 2-((6-(3,7-dimethyl-1H-pyrrolo[3,2-b]pyridin-6-yl)-7-fluoroisoquinolin-3-yl)amino)-6-methyl-5,6-dihydro-4H-pyrazolo[1,5-d] [1,4]diazepin-7(8H)-one], the inhibitory constant (Ki) is 0.26 nM.

`Cc1c(-c2cc3cc(Nc4cc5n(n4)CC(=O)NCC5)ncc3cc2F)cnc2c1NCCC2=O` [Compound 196, 2-((7-fluoro-6-(4-methyl-8-oxo-5,6,7,8-tetrahydro-1,5-naphthyridin-3-yl)isoquinolin-3-yl)amino)-5,6-dihydro-4H-pyrazolo[1,5-d][1,4]diazepin-7(8H)-one]: the Ki amounted to 0.1 nM.

As for `Cc1c(NS(=O)(=O)C2CC2)cncc1-c1cc2cc(Nc3cc4n(n3)CC(=O)N(C)CC4)ncc2cc1F` [Compound 197, N-(5-(7-fluoro-3-((6-methyl-7-oxo-5,6,7,8-tetrahydro-4H-pyrazolo[1,5-d][1,4]diazepin-2-yl)amino)isoquinolin-6-yl)-4-methylpyridin-3-yl)cyclopropanesulfonamide], the Ki stood at 4.1 nM.

Take `Cc1cc(N2CCNCC2)ncc1-c1cc2cc(Nc3cc4n(n3)CC(=O)N(C)CC4)ncc2cc1F` [Compound 198, 2-((7-fluoro-6-(4-methyl-6-(piperazin-1-yl)pyridin-3-yl)isoquinolin-3-yl)amino)-6-methyl-5,6-dihydro-4H-pyrazolo[1,5-d][1,4]diazepin-7(8H)-one]: the Ki was 4.2 nM.

In the case of `CNC1CCN(c2cc(C)c(-c3cc4cc(Nc5cc6n(n5)CC(=O)N(C)CC6)ncc4cc3F)cn2)CC1` [Compound 199, 2-((7-fluoro-6-(4-methyl-6-(4-(methylamino)piperidin-1-yl)pyridin-3-yl)isoquinolin-3-yl)amino)-6-methyl-5,6-dihydro-4H-pyrazolo[1,5-d][1,4]diazepin-7(8H)-one], the Ki came to 5 nM.

For `CN1CCc2cc(Nc3cc4cc(-c5cccc6c5CCNC6)c(F)cc4cn3)nn2CC1=O` [Compound 200, 2-((7′-fluoro-1,2,3,4-tetrahydro-[5,6′-biisoquinolin]-3′-yl)amino)-6-methyl-5,6-dihydro-4H-pyrazolo[1,5-d][1,4]diazepin-7(8H)-one], the Ki is 127 nM.

Take `Cc1[nH]ncc1-c1cc2cc(Nc3cc4n(n3)CC(=O)N(C)CC4)ncc2c(O)c1F` [Compound 202, 2-((7-fluoro-8-hydroxy-6-(5-methyl-1H-pyrazol-4-yl)isoquinolin-3-yl)amino)-6-methyl-5,6-dihydro-4H-pyrazolo[1,5-d][1,4]diazepin-7(8H)-one]: the inhibition constant Ki is 119 nM.

On to `Cc1c(-c2cc3cc(Nc4cc5n(n4)CC(=O)N(C)CC5)ncc3cc2F)cnc(=O)n1C` [Compound 203, 2-((6-(1,6-dimethyl-2-oxo-1,2-dihydropyrimidin-5-yl)-7-fluoroisoquinolin-3-yl)amino)-6-methyl-5,6-dihydro-4H-pyrazolo[1,5-d][1,4]diazepin-7(8H)-one], for which the Ki came to 97 nM.

For the molecule `Cc1c(CS(C)(=O)=O)cncc1-c1cc2cc(Nc3cc4n(n3)CC(=O)N(C)CC4)ncc2cc1F` [Compound 204, 2-((7-fluoro-6-(4-methyl-5-((methylsulfonyl)methyl)pyridin-3-yl)isoquinolin-3-yl)amino)-6-methyl-5,6-dihydro-4H-pyrazolo[1,5-d][1,4]diazepin-7(8H)-one], the Ki is 0.18 nM.

Turning to `Cc1c(CN)cccc1-c1cc2cc(Nc3cc4n(n3)CC(=O)N(C)CC4)ncc2cc1F` [Compound 207, 2-((6-(3-(aminomethyl)-2-methylphenyl)-7-fluoroisoquinolin-3-yl)amino)-6-methyl-5,6-dihydro-4H-pyrazolo[1,5-d][1,4]diazepin-7(8H)-one], the inhibitory constant (Ki) worked out at 22 nM.

With `Cc1c(-c2cc3cc(Nc4cc5n(n4)CC(=O)N(C)CC5)ncc3cc2F)cnc2c1NCCC2(F)F` [Compound 208, 2-((6-(8,8-difluoro-4-methyl-5,6,7,8-tetrahydro-1,5-naphthyridin-3-yl)-7-fluoroisoquinolin-3-yl)amino)-6-methyl-5,6-dihydro-4H-pyrazolo[1,5-d][1,4]diazepin-7(8H)-one], the Ki was determined as 0.02 nM.

`Cc1c(-c2cc3cc(Nc4cc5n(n4)CC(=O)N(C)CC5)ncc3cc2F)cnc2c(=O)n(C)[nH]c12` [Compound 209, 2-((6-(2,7-dimethyl-3-oxo-2,3-dihydro-1H-pyrazolo[4,3-b]pyridin-6-yl)-7-fluoroisoquinolin-3-yl)amino)-6-methyl-5,6-dihydro-4H-pyrazolo[1,5-d][1,4]diazepin-7(8H)-one]: the inhibitory constant (Ki) was determined as 1.9 nM.
